Test results reported in ChEMBL document CHEMBL1151596, “7-Oxa[2.2.1]bicycloheptane-2,3-dicarboxylic acid derivatives as phosphatase inhibitors” (Bioorg Med Chem Lett, 1997).

Experiments:
[1] = Compound was tested for inhibition of protein phosphatase 2B (PP2B, Calcineurin)
[2] = Compound was tested for inhibition of protein phosphatase 2A (PP2A)
[3] = Compound was tested for inhibition of […] ([…])
[4] = Effect on the transcription and release of thymidine kinase in a reporter-gene assay (RGA); format: functional
Jurkat = assay: Effect on the transcription and release of IL-2 in a reporter-gene assay (RGA); format: functional, cell-based; conditions: Homo sapiens
T-cell = assay: Compound was tested for inhibition of IL-2 secretion in mouse T cell line; format: functional, cell-based

IC50 (T-cell) [µM] | Compound | Ki [1] [µM] | IC50 [2] [µM] | Ki [2] [µM] | IC50 [3] [µM] | IC50 [4] [µM] | IC50 (Jurkat) [µM]
– | CCOC(=O)[C@@H]1[C@H](C(=O)OCC)[C@H]2CC[C@@H]1O2 | > 100 | – | – | – | – | –
– | O=C1OC(=O)[C@H]2[C@@H]1[C@@H]1CC[C@H]2O1 [DEMETHYL-CANTHARIDIN] | 3.33 | 0.97 | 0.2 | 5 | 100 | > 22
– | COC(=O)[C@H]1[C@@H](C(=O)O)[C@@H]2CC[C@H]1O2 (single isomer, unassigned) | > 100 | – | – | – | – | –
– | C[C@@]12C(=O)OC(=O)[C@]1(C)[C@H]1CC[C@@H]2O1 [CANTHARIDIN] | 10.8 | – | 0.065 | – | – | –
– | C/C=C/C[C@@H](C)[C@@H](O)[C@H]1C(=O)N[C@@H](CC)C(=O)N(C)CC(=O)N(C)[C@@H](CC(C)C)C(=O)N[C@@H](C(C)C)C(=O)N(C)[C@@H](CC(C)C)C(=O)N[C@@H](C)C(=O)N[C@H](C)C(=O)N(C)[C@@H](CC(C)C)C(=O)N(C)[C@@H](CC(C)C)C(=O)N(C)[C@@H](C(C)C)C(=O)N1C [CYCLOSPORINE] | – | – | – | – | – | 0.008
– | O=C(O)[C@@H]1[C@H](C(=O)O)[C@H]2CC[C@@H]1O2 | 3.02 | – | 0.17 | – | 42 | > 100
5 | CN(C)C(=O)[C@H]1[C@@H](C(=O)O)[C@@H]2CC[C@H]1O2 | 2.78 | – | 0.18 | – | 100 | 4.7
